Values quoted from earlier work, collected in PMC11946513, “Modulation of the substrate preference of a MYST acetyltransferase by a scaffold protein” (The Journal of Biological Chemistry, 2025).

Biological target: KAT6A MYST domain
Settings: binding to the KAT6A MYST domain; acetyl-CoA competitive; read-out: inhibition constant (Ki)
Procedure: The active enzyme concentration for each form of KAT6A was obtained through tight-binding inhibition ([48]) by PF-9363, which binds to the KAT6A MYST domain with an inhibition constant (Ki) of ≈0.3 nM ([6]).

SMILES: COc1cccc(OC)c1S(=O)(=O)Nc1noc2cc(Cn3cccn3)cc(OC)c12 [PF-9363]
- Ki: ~300 pM
